# Publication PMC3037034 (ACS Medicinal Chemistry Letters, 2010)
# Experiments:
# [1] = target: T1, human COX-2 (Homo sapiens, UniProt P35354); assay: purified COX-2 inhibition, TLC assay; type: biochemical; conditions: for COX-2 inhibitory activity (in words): purified COX-2
# T1 sequence (P35354 18-604): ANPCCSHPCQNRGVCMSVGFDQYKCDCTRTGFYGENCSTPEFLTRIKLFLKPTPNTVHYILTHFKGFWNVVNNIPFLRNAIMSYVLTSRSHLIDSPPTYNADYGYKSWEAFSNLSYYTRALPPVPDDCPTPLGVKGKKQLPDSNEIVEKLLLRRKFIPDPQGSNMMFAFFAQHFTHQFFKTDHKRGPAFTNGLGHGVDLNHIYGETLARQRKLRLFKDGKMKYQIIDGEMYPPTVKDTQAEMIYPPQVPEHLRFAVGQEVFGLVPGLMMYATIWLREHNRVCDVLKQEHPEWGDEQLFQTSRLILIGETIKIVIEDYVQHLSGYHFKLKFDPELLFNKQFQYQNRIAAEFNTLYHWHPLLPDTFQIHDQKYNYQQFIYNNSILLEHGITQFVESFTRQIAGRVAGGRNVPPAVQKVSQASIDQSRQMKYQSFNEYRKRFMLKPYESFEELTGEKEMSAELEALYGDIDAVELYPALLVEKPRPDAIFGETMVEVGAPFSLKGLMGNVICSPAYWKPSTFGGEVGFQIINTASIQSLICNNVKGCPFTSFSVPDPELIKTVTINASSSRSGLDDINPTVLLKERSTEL
# [2] = target: T2, ovine COX-1 (Ovis aries, UniProt P05979); assay: purified COX-1 inhibition, TLC assay; type: biochemical; conditions: at concentrations up to 5 μM
# T2 sequence (P05979 25-600): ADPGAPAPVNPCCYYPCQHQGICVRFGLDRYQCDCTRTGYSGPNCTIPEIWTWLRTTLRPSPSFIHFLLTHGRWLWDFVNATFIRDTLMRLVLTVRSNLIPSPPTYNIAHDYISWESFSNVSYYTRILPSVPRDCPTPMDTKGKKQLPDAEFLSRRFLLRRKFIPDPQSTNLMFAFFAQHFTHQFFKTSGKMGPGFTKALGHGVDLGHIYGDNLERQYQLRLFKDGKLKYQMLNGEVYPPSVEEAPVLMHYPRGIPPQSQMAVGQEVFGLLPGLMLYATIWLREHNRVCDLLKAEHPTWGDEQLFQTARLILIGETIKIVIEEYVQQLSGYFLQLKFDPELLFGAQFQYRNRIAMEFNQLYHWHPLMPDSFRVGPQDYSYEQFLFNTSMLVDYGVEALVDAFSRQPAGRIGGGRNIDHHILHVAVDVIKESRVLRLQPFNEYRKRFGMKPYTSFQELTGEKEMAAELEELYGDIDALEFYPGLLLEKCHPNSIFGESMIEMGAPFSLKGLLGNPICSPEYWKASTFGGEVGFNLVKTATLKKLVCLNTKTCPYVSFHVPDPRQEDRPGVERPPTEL
smiles,measurement,setting,value
CS(=O)(=O)c1ccc(-n2nc(C(F)(F)F)cc2-c2cccc(I)c2)cc1 [compound 7],IC50,[1],0.32 µM
COC(=O)c1cc(-c2cccc(I)c2)n(-c2ccc(S(N)(=O)=O)cc2)n1 [compound 2],IC50,[1],3.8 µM
NS(=O)(=O)c1ccc(-n2nc(CCC(=O)O)cc2-c2cccc(I)c2)cc1 [compound 5],IC50,[1],> 4 µM
same,COX-2 inhibitory activity (in words),[1],inactive
COC(=O)c1cc(-c2ccc(I)cc2)n(-c2ccc(S(N)(=O)=O)cc2)n1 [compound 3],IC50,[1],0.56 µM
"CS(=O)(=O)c1ccc(-n2nc(C(F)(F)F)cc2-c2ccc(I)cc2)cc1 [compound 8, 5-(4-iodophenyl)-1-{4-(methylsulfonyl)phenyl}-3-(trifluoromethyl)-1H-pyrazole]",IC50,[1],0.05 µM
same,inhibition of COX-1 (in words),[2],without inhibition
COC(=O)c1cc(-c2cccc(I)c2)n(-c2ccc(S(C)(=O)=O)cc2)n1 [compound 9],IC50,[1],> 4 µM
COC(=O)c1cc(-c2ccc(I)cc2)n(-c2ccc(S(C)(=O)=O)cc2)n1 [compound 10],IC50,[1],3 µM
NS(=O)(=O)c1ccc(-n2nc(CCC(=O)O)cc2-c2ccc(I)cc2)cc1 [compound 6],IC50,[1],> 4 µM
same,COX-2 inhibitory activity (in words),[1],inactive
CCOC(=O)c1cc(-c2ccc(I)cc2)n(-c2ccc(S(N)(=O)=O)cc2)n1 [compound 4],IC50,[1],0.26 µM
